Measured values as given in patent US20230265151A1, “GIP/GLP1 CO-AGONIST COMPOUNDS” (priority 2020, published 2023).
Where two headings read alike, the source gives them in different places. *1 amine or outer side, *2 acyl side, *3 side chain or, on linkers, in order; H or OH if unused. Where a SMILES comes first, the peptide text is derived from it. Side-chain parts run from the residue outwards. [ ]: non-standard residue; d: D form. The star is where a group is joined. αMePhe(2-F) = C[C@](N)(Cc1ccccc1F)C(=O)O; γGlu = O=C(O)[C@H](CCC(=O)[*:2])N[*:1]; C14 diacid = O=C(O)CCCCCCCCCCCCC(=O)*; αMeY = C[C@](N)(Cc1ccc(O)cc1)C(=O)O; αMeF = C[C@](N)(Cc1ccccc1)C(=O)O; 4Pal = N[C@@H](Cc1ccncc1)C(=O)O; αMeL = CC(C)C[C@](C)(N)C(=O)O; Lauroyl = CCCCCCCCCCCC(=O)*; Orn = NCCC[C@H](N)C(=O)O; AEEA = NCCOCCOCC(=O)O; Aib = CC(C)(N)C(=O)O

Legend:
Type in all cases: cell-based
hGIPR = target: T1, hGIPR (Homo sapiens, UniProt P48546); assay: Functional cAMP formation (HTRF) in HEK-293 clonal cells expressing hGIPR, 0.1% bovine casein, without or with 1.0% human serum albumin; settings: for EC50: geometric mean, read-out: hGIPR EC50, nM (SEM, n); for Emax: read-out: hGIPR Emax, % ± SEM
T1 construct: expressed in transfected cells
T1 sequence (P48546 22-466): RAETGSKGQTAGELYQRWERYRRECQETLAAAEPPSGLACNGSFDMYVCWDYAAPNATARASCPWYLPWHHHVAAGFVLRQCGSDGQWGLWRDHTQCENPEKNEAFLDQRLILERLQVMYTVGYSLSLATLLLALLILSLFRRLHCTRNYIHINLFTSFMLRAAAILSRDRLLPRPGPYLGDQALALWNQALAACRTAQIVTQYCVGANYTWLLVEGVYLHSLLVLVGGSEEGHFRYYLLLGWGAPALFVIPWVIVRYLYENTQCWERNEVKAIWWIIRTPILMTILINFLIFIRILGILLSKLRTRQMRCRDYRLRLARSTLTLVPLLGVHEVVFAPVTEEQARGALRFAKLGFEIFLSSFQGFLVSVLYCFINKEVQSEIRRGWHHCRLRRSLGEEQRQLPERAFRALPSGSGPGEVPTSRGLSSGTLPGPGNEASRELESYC
Summary of the method: (§1)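 Cells were stimulated with peptide for 30 min at 37° C, then lysed in buffer carrying cAMP-d2 and anti-cAMP Eu3+-cryptate for a competitive HTRF read after at least 60 min at room temperature. The 665/620 nm ratio was converted to nM cAMP against a standard curve.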

hGCGR = target: T2, hGCGR (Homo sapiens, UniProt P47871); assay: Functional cAMP formation (HTRF) in HEK-293 clonal cells expressing hGCGR, 0.1% bovine casein, without or with 1.0% human serum albumin; settings: read-out: hGCGR EC50, nM (SEM, n)
T2 construct: expressed in transfected cells
T2 sequence (P47871 26-477): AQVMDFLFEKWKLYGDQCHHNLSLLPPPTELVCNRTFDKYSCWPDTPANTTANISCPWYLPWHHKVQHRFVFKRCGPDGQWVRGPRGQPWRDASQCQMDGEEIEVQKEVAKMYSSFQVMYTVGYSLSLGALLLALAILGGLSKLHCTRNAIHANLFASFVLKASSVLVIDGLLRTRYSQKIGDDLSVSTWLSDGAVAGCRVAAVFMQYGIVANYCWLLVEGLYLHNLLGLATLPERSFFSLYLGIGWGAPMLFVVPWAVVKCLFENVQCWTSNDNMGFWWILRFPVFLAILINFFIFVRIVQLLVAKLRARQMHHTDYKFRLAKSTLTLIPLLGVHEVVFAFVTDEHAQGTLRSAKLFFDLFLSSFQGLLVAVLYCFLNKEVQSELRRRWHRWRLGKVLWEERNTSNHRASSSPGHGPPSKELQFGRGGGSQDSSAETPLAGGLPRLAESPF
Summary of the method: as §1

hGLP-1R = hGLP-1R (Homo sapiens, UniProt P43220); assay: Functional cAMP formation (HTRF) in HEK-293 clonal cells expressing hGLP-1R, 0.1% bovine casein, without or with 1.0% human serum albumin; parameters: expressed in transfected cells; settings: for EC50: geometric mean, read-out: hGLP-1R EC50, nM (SEM, n); for Emax: read-out: hGLP-1R Emax, % ± SEM
Chain of hGLP-1R (P43220 24-463): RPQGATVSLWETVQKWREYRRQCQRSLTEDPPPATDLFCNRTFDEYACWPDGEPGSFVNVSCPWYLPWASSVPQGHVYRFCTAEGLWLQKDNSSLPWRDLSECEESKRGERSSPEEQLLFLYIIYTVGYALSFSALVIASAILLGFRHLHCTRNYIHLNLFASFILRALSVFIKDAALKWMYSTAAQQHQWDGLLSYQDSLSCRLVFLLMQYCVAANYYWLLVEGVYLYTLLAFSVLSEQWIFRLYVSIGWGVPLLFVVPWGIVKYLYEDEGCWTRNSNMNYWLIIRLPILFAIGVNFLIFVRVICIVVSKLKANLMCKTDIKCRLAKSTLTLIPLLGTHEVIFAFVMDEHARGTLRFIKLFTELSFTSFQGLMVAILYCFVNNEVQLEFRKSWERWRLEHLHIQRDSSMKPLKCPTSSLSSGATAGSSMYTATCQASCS
Summary of the method: as §1

[1] = 0.1% bovine casein and 1.0% human serum albumin, 37° C.
[2] = HEK293, 0.1% bovine casein and 1.0% human serum albumin, 37° C., percent of maximal response to GIP(1-42)NH2
[3] = HEK293, percent of maximal response to GIP(1-42)NH2, 37° C., 0.1% bovine casein, arithmetic mean
[4] = cAMP, incubated at 37° C., 0.1% bovine casein (no human serum albumin)
[5] = 0.1% bovine casein and 1.0% human serum albumin, 37° C., geometric mean
[6] = cAMP, incubated at 37° C., 0.1% bovine casein (no human serum albumin), geometric mean
[7] = HEK293, 0.1% bovine casein and 1.0% human serum albumin, 37° C., percent of maximal response to GLP-1(7-36)NH2
[8] = HEK293, percent of maximal response to GLP-1(7-36)NH2, 37° C., 0.1% bovine casein, arithmetic mean
[9] = HEK293, cAMP, 37° C., 0.1% bovine casein, percent of maximal response to GIP(1-42)NH2, arithmetic mean
[10] = cAMP, 37° C., 0.1% bovine casein (no human serum albumin)
[11] = cAMP, 37° C., 0.1% bovine casein (no human serum albumin), geometric mean

## CC[C@H](C)[C@H](NC(=O)[C@H](CC(C)C)NC(=O)[C@](C)(Cc1ccc(O)cc1)NC(=O)[C@@H](CCC(=O)O)NC(=O)[C@@H](NC(=O)[C@H](Cc1ccccc1)NC(=O)[C@H](CCC(=O)O)NC(=O)C(C)(C)NC(=O)[C@H](CCC(N)=O)NC(=O)[C@H](C)NC(=O)[C@H](CCCCNC(=O)COCCOCCNC(=O)COCCOCCNC(=O)CC[C@H](NC(=O)CCCCCCCCCCCCC(=O)O)C(=O)O)NC(=O)[C@H](CCCN)NC(=O)[C@H](CC(=O)O)NC(=O)[C@H](CC(C)C)NC(=O)[C@](C)(CC(C)C)NC(=O)[C@@H](NC(=O)[C@H](CO)NC(=O)[C@H](Cc1ccncc1)NC(=O)[C@H](CC(=O)O)NC(=O)[C@H](CO)NC(=O)[C@@H](NC(=O)[C@](C)(Cc1ccccc1F)NC(=O)[C@@H](NC(=O)CNC(=O)[C@H](CCC(=O)O)NC(=O)C(C)(C)NC(=O)[C@@H](N)Cc1ccc(O)cc1)[C@@H](C)O)[C@@H](C)O)[C@@H](C)CC)[C@@H](C)CC)C(=O)N[C@@H](CCC(=O)O)C(=O)NCC(=O)NCC(=O)N[C@@H](CCCCNC(=O)COCCOCCNC(=O)COCCOCCNC(=O)CC[C@H](NC(=O)CCCCCCCCCCCCC(=O)O)C(=O)O)C(=O)N[C@@H](CO)C(=O)N[C@@H](CO)C(=O)NCC(=O)N[C@@H](CCCN)C(=O)N1CCC[C@H]1C(=O)N1CCC[C@H]1C(=O)N1CCC[C@H]1C(=O)N[C@@H](CO)C(N)=O [Example 153] (H-Y[Aib]EGT[αMePhe(2-F)]TSD[4Pal]SI[αMeL]LD[Orn]K([AEEA-AEEA-γGlu-C14 diacid])AQ[Aib]EFI[dE][αMeY]LIEGGK([AEEA-AEEA-γGlu-C14 diacid])SSG[Orn]PPPS-NH2)
hGIPR; [1]
  EC50: 1.15 nM
hGIPR; [2]
  Emax: 94.1 ± 3.21%
hGIPR; [3]
  Emax: 97.8 ± 2.74%
hGIPR; [4]
  EC50: 0.0277 nM
hGCGR; [5]
  EC50: > 9950 nM
hGCGR; [6]
  EC50: > 9950 nM
hGLP-1R; [1]
  EC50: 40.8 nM
hGLP-1R; [7]
  Emax: 98.2 ± 5.4%
hGLP-1R; [8]
  Emax: 91.8 ± 4.63%
hGLP-1R; [4]
  EC50: 1.1 nM

## CC[C@H](C)[C@H](NC(=O)[C@H](CC(C)C)NC(=O)[C@](C)(Cc1ccc(O)cc1)NC(=O)[C@@H](CCC(=O)O)NC(=O)[C@@H](NC(=O)[C@H](Cc1ccccc1)NC(=O)[C@H](CCC(=O)O)NC(=O)C(C)(C)NC(=O)[C@H](CCC(N)=O)NC(=O)[C@H](C)NC(=O)[C@H](CCCCNC(=O)COCCOCCNC(=O)COCCOCCNC(=O)CC[C@H](NC(=O)CCCCCCCCCCCCC(=O)O)C(=O)O)NC(=O)[C@H](CCCN)NC(=O)[C@H](CC(=O)O)NC(=O)[C@H](CC(C)C)NC(=O)[C@](C)(CC(C)C)NC(=O)[C@@H](NC(=O)[C@H](CO)NC(=O)[C@@H](NC(=O)[C@H](CC(=O)O)NC(=O)[C@H](CO)NC(=O)[C@@H](NC(=O)[C@](C)(Cc1ccccc1F)NC(=O)[C@@H](NC(=O)CNC(=O)[C@H](CCC(=O)O)NC(=O)C(C)(C)NC(=O)[C@@H](N)Cc1ccc(O)cc1)[C@@H](C)O)[C@@H](C)O)C(C)C)[C@@H](C)CC)[C@@H](C)CC)C(=O)N[C@@H](CCC(=O)O)C(=O)NCC(=O)NCC(=O)N[C@@H](CCCCNC(=O)COCCOCCNC(=O)COCCOCCNC(=O)CC[C@H](NC(=O)CCCCCCCCCCCCC(=O)O)C(=O)O)C(=O)N[C@@H](CO)C(=O)N[C@@H](CO)C(=O)NCC(=O)N[C@@H](C)C(=O)N1CCC[C@H]1C(=O)N1CCC[C@H]1C(=O)N1CCC[C@H]1C(=O)N[C@@H](CO)C(N)=O [Example 90] (H-Y[Aib]EGT[αMePhe(2-F)]TSDVSI[αMeL]LD[Orn]K([AEEA-AEEA-γGlu-C14 diacid])AQ[Aib]EFI[dE][αMeY]LIEGGK([AEEA-AEEA-γGlu-C14 diacid])SSGAPPPS-NH2)
hGIPR; [3]
  Emax: 93 ± 3.31%
hGCGR; [5]
  EC50: > 9950 nM
hGCGR; [6]
  EC50: > 9950 nM
hGLP-1R; [1]
  EC50: 23.4 nM
hGLP-1R; [7]
  Emax: 96.6%
hGLP-1R; [8]
  Emax: 96.2 ± 1.5%
hGLP-1R; [4]
  EC50: 0.221 nM

## CCCCCCCCCCCC(=O)N[C@@H](CCC(=O)NCCOCCOCC(=O)NCCOCCOCC(=O)NCCOCCOCC(=O)NCCCC[C@H](NC(=O)[C@H](CCCN)NC(=O)[C@H](CC(=O)O)NC(=O)[C@H](CC(C)C)NC(=O)[C@](C)(CC(C)C)NC(=O)[C@@H](NC(=O)C(C)(C)NC(=O)[C@H](Cc1ccncc1)NC(=O)[C@H](CC(=O)O)NC(=O)[C@H](CO)NC(=O)[C@@H](NC(=O)[C@](C)(Cc1ccccc1F)NC(=O)[C@@H](NC(=O)CNC(=O)[C@H](CCC(=O)O)NC(=O)C(C)(C)NC(=O)[C@@H](N)Cc1ccc(O)cc1)[C@@H](C)O)[C@@H](C)O)[C@@H](C)CC)C(=O)N[C@@H](C)C(=O)N[C@@H](CCC(N)=O)C(=O)NC(C)(C)C(=O)N[C@@H](CCCCNC(=O)COCCOCCNC(=O)COCCOCCNC(=O)COCCOCCNC(=O)CC[C@H](NC(=O)CCCCCCCCCCC)C(=O)O)C(=O)N[C@@](C)(Cc1ccccc1)C(=O)N[C@H](C(=O)N[C@H](CCC(=O)O)C(=O)N[C@@](C)(Cc1ccc(O)cc1)C(=O)N[C@@H](CC(C)C)C(=O)N[C@H](C(=O)N[C@@H](CCC(=O)O)C(=O)NCC(=O)NCC(=O)N1CCC[C@H]1C(=O)N[C@@H](CO)C(=O)N[C@@H](CO)C(=O)NCC(=O)N[C@@H](C)C(=O)N1CCC[C@H]1C(=O)N1CCC[C@H]1C(=O)N1CCC[C@H]1C(=O)N[C@@H](CO)C(N)=O)[C@@H](C)CC)[C@@H](C)CC)C(=O)O [Example 437] (H-Y[Aib]EGT[αMePhe(2-F)]TSD[4Pal][Aib]I[αMeL]LD[Orn]K([AEEA-AEEA-AEEA-γGlu-Lauroyl])AQ[Aib]K([AEEA-AEEA-AEEA-γGlu-Lauroyl])[αMeF]I[dE][αMeY]LIEGGPSSGAPPPS-NH2)
hGIPR; HEK293, cAMP, 37° C., 0.1% bovine casein and 1.0% human serum albumin, percent of maximal response to GIP(1-42)NH2
  Emax: 96.5%
hGIPR; [9]
  Emax: 94.8%
hGIPR; [10]
  EC50: 0.0146 nM
hGCGR; [11]
  EC50: > 9950 nM
hGCGR; cAMP, 37° C., 0.1% bovine casein and 1.0% human serum albumin, geometric mean (SEM, n)
  EC50: > 9950 nM
hGLP-1R; HEK293, cAMP, 37° C., 0.1% bovine casein and 1.0% human serum albumin, percent of maximal response to GLP-1(7-36)NH2
  Emax: 91.2%
hGLP-1R; HEK293, cAMP, 37° C., 0.1% bovine casein, percent of maximal response to GLP-1(7-36)NH2, arithmetic mean
  Emax: 89.2%
hGLP-1R; [10]
  EC50: 0.249 nM

## CC[C@H](C)[C@H](NC(=O)[C@H](CCCN)NC(=O)[C@H](CC(=O)O)NC(=O)[C@H](CC(C)C)NC(=O)[C@](C)(CC(C)C)NC(=O)[C@@H](NC(=O)C(C)(C)NC(=O)[C@@H](NC(=O)[C@H](CC(=O)O)NC(=O)[C@H](CO)NC(=O)[C@@H](NC(=O)[C@](C)(Cc1ccccc1F)NC(=O)[C@@H](NC(=O)CNC(=O)[C@H](CCC(=O)O)NC(=O)C(C)(C)NC(=O)[C@@H](N)Cc1ccc(O)cc1)[C@@H](C)O)[C@@H](C)O)C(C)C)[C@@H](C)CC)C(=O)N[C@@H](C)C(=O)N[C@@H](CCC(N)=O)C(=O)NC(C)(C)C(=O)N[C@@H](CCCN)C(=O)N[C@@H](Cc1ccccc1)C(=O)N[C@H](C(=O)N[C@@H](CCCCNC(=O)COCCOCCNC(=O)COCCOCCNC(=O)CC[C@H](NC(=O)CCCCCCCCCCCCC(=O)O)C(=O)O)C(=O)N[C@@](C)(Cc1ccc(O)cc1)C(=O)N[C@@H](CC(C)C)C(=O)N[C@H](C(=O)N[C@@H](CCCCNC(=O)COCCOCCNC(=O)COCCOCCNC(=O)CC[C@H](NC(=O)CCCCCCCCCCCCC(=O)O)C(=O)O)C(=O)NCC(=O)NCC(=O)N1CCC[C@H]1C(=O)N[C@@H](CO)C(=O)N[C@@H](CO)C(=O)NCC(=O)N[C@@H](C)C(=O)N1CCC[C@H]1C(=O)N1CCC[C@H]1C(=O)N1CCC[C@H]1C(=O)N[C@@H](CO)C(N)=O)[C@@H](C)CC)[C@@H](C)CC [Example 317]
hGIPR; [1]
  EC50: 2.03 nM
hGIPR; [2]
  Emax: 84.4%
hGIPR; [9]
  Emax: 112%
hGIPR; [10]
  EC50: 0.0587 nM
hGCGR; [5]
  EC50: > 9950 nM
hGCGR; [11]
  EC50: > 9950 nM
hGLP-1R; [7]
  Emax: 98.1%
hGLP-1R; [10]
  EC50: 1.34 nM
